US20090124622A1, “Medicament Containing a Thiazole Derivative as an Active Ingredient” (priority 2006, published 2009)

Key:
[1] = test system: guinea pig delayed asthma model; experiment: Guinea pig delayed asthma model; assay type: in vivo; conditions: Cavia porcellus, oral, 1 hour before OVA inhalation, read-out: ED50 (inhibition of delayed asthma reaction, AUC4-8hr of % sRaw/TV)
Procedure: Hartley male guinea pigs were purchased from SLC, and after quarantining them for 1 week, at the week when the qualantine was finished the first sensitization was carried out by antigen exposure. By using ultrasonic nebulizer (OMRON NE-U12, condition: Vapor amount: maximum, Air: small) 2% (w/v) ovalbumin (OVA, by Sigma-Aldrich) in saline solution was vaporized, and by disposing for 10 minutes, they were first sensitized. At sensitizing, the guinea pigs were fixed on a body holder cartridge for them (by M.I.P.S.), and they were set on disposal chamber holder for 8 guinea pigs (by M.I.P.S.). Additional sensitization was carried out 7 days after the first sensitization as well. […] Breath function was measured by a general breath function measurement system (by M.I.P.S.) using Double flow plestymograph method (Penny A. Hutson et al. Am Rev Respir Dis 1988 137, 548-557). The breath function was measured before reaction induction (pre-value), 5 minutes, 1, 2, 3, 4, 5, 6, 7, and 8 hours after completion of reaction induction. By using one of parameters, sRaw/TV (specific airway resistance/once breath) as an index of improvement of respiratory function, variation rate per individual of sRaw/TV (% sRaw/TV) against pre-value between each measured times was calculated. Plotting % sRaw/TV with time, Area Under the Curve (AUC4-8hr) from 4 hours to 8 hours after reaction induction was calculated. […]

[2] = test system: mast cells derived from murine bone marrow; experiment: Histamine release from antigen-stimulated murine bone marrow-derived mast cells; assay type: cell-based, mouse; conditions: DNP-HSA 100 ng/ml, 20 minutes; IgE-sensitized mast cells
Source text: (§1) According to almost the same method as the method by Razin et al. (J. Immunol. 132, 1479-1486 (1984)), murine bone marrow cells were differentiated into mast cells. Namely, bone marrow cells from femur of a female BALB/c mouse (purchased from Charles River Japan) were collected, and cultured in RPMI 1640 culture medium, containing 10% […] FBS prepared by Invitrogen, and 50% WEHI-3 cell culture supernatant. After culture for more than three weeks and confirming differentiation into mast cells under microscope, the cells were subjected to the following experiments.
Mast cells were suspended in the concentration of 2×10^6 cell/ml, and thereto was added 0.1 μg/ml anti-mouse DNP-Age antibody (SPE7, by Sigma-Aldrich). The cell suspension was incubated overnight in a CO2 incubator (5% CO2, 37° C.), and passively sensitized. […] The cell suspension (80 μl) were added to a 96-well culture plate (by Asahi-techno-glass Co. Ltd.), and then a test sample in DMSO solution or 2.5% DMSO solution only (10 μl) was added. After the plate was reinsulated in a CO2 incubator for 10 minutes, to stimulate, 10 μl of 1 μg/ml of antibody (DNP-HSA, by Sigma-Aldrich, final concentration of antigen 100 ng/ml) was added to each well. […] After terminating the reaction by putting the plate on ice, histamine concentration of the supernatant was measured. […]

[3] = test system: mast cells derived from murine bone marrow; experiment: Cys-LT release from antigen-stimulated murine bone marrow-derived mast cells; assay type: cell-based, mouse; conditions: DNP-HSA 10 ng/ml; IgE-sensitized mast cells
Source text: as §1
(§2) Mast cells were suspended in the concentration of 2×10^6 cell/ml, and thereto was added 0.1 μg/ml anti-mouse DNP-Age antibody (SPE7, by Sigma-Aldrich). The cell suspension was incubated overnight in a CO2 incubator (5% CO2, 37° C.), and passively sensitized. […] After terminating the reaction by putting the plate on ice, histamine concentration of the supernatant was measured. […]
This experiment was conducted in the almost same method as the experiment of histamine release except that the final concentration of antigen (DNP-HSA) was 10 ng/ml. The concentration of […] in supernatant was measured by using Cysteinyl-Leukotriene EIA Kit (by Cayman Chemical).

[4] = test system: mast cells derived from murine bone marrow; experiment: Cytokine (TNF-α, IL-13) release from antigen-stimulated murine bone marrow-derived mast cells; assay type: cell-based, mouse; conditions: DNP-HSA 3 ng/ml, 4 hours
Source text: as §1, §2
This experiment was conducted in almost the same method as the experiment on histamine release except that the final concentration of antigen (DNP-HSA) was 3 ng/ml, and reaction hours after addition of the antigen were 4 hours. The concentrations of TNF-α, and IL-13 in the supernatant were measured by using Enzyme-linked immunoassay kit (Quantikine (reg. trademark) Mouse TNF-α/TNFSF1A and IL-13 Immunoassay, by R&D systems).

[5] = test system: guinea pig eosinophiles; experiment: Release of prostaglandin D2 and thromboxane B2 from PAF-induced guinea pig eosinophiles; assay type: cell-based; conditions: PAF C-16 10^-7M, 10 minutes
Procedure: In accordance with almost the same as the method of Sugasawa et al. (Agents and Actions 37, 233-237 (1992)), eosinophiles were separated and purified from abdominal of a male Hartley guinea pig (from SLC) and the cell concentration was adjusted to 1.25×10^7 cell/ml with modified hanks solution. The cell suspension (80 μl) were added to a 96-well culture plate (by Asahi-techno-glass Co. Ltd.), and then a test sample in DMSO solution or 2.5% DMSO solution only (10 μl) was added. After the plate was preincubated in a CO2 gas incubator for 10 minutes (5% CO2, at 37° C.), thereto was added Platelet Activating Factor (PAF C-16, by Cayman Chemical) 10 μl (final concentration of PAF C-16: 10−7M), and the mixture was further incubated in a CO2 gas incubator for 10 minutes. The concentrations of thromboxane B2 and prostaglandin in the supernatant were measured by using immunoassay kit (Thromboxane B2 EIA kit, Prostaglandin D2-MOX EIA kit, by Cayman Chemical).

[6] = test system: guinea pig rhinitis model; experiment: Nasal cavity resistance change (sRaw) in guinea pig rhinitis model; assay type: in vivo; conditions: oral
Procedure: Referring to the report (74th Japanese Pharmacological Society (2001), Abstract number P-258, Establishment delayed rhinitis model by a guinea pig and effect of polysulfonic acidified hyaluronic acid, Masaki Matsudo, Junichi Fuchigami et al.), the following evaluation was conducted.
A saline solution (1 ml) containing OVA (50 mg) and aluminum hydroxide gel (1 mg) (by PIERCE) was percuteneously administered to a male Hartley guinea pig (from Kyudo Co. Ltd.) on back collum to make active sensitization.
SMP-028 was orally administered for 15 days starting from sensitization once a day (5 ml/body weight (kg)). The drug was orally administered before 1 hour on the sensitized day or on the antibody-challenged day. To saline solution challenged group (saline group) and control group was orally administered 0.5% MC as well. To dexamethasone group (dex. group) was orally administered the drug before 16 hours and 2 hours of antibody challenge. […]
By using a general respiratory function analysis system (PULMOS-I, by M.I.P.S), nasal cavity resistance of guinea big under palinesthesia was measured in accordance with the method of Double flow plestymograph. Because antibody challenge region was restricted to nose part, sRaw which was analyzed by computer and outputted (specific airway resistance) was served as an index of nasal cavity resistance. Before antibody nasal challenge, 10 minutes, 2, 3, 4, 5, 6 and 7 hours after the challenge, each sRaw per animal was once measured, and average of 100 breathes was made sRaw at each measured time. From the sRaw value by using analysis soft on a general respiratory function analysis system (WinPUL13 ver. 1.21) and using the calculation formula (sRaw increased rate (%) during each measuring times=100×(sRaw−sRaw before challenge during each measuring times)/sRaw before challenge), sRaw change rate was calculated. […] AUC3-7hr was calculated by trapezoid (echelon) method. Furthermore, from IAR and LAR in medium control group and each test group, inhibiting rate (%) on each test group against medium control group was calculated.

[7] = test system: guinea pig rhinitis model; experiment: Inflammatory mediators (TNF, LTE4) in nasal cavity lavage fluid of guinea pig rhinitis model; assay type: in vivo; conditions: 8 hours after antigen nasal challenge
Procedure: Eight hours after antigen nasal challenge, by intraperitoneally administering pentobarbital sodium (Nembutal (reg. trade name), by Dainippon Sumitomo Pharma) 30 mg/body weight (kg) to anesthetize, the animal was fixed at the back. Opening bronchial, a cannula was inserted into a lung site to continue breath, and fixed by knotting. After stopping the channel of oral cavity and nasal cavity, from a part of opened bronchia to a side of nasal cavity a cannula was inserted, and knotted, and to the cannula was connected syringe pump. A saline solution was refluxed in the nasal cavity at flow speed (1 ml/minute) for 10 minutes, and the refluxed solution was recovered to get nasal cavity lavage fluid, NCLF). NCLF was centrifuged (1710.5×g (3000 rpm), 4° C., 10 minutes), and the supernatant was freezed at −80° C., and subjected to experiment of Example 5.
The supernatant of NCLF obtained in Example 4 was freezed at −80° C. and preserved. After thawing the sample, the concentration of LTE4 was measured by immuno assay kit (Leukotriene E4 EIA kit, by Cayman Chemical). The concentration of TNF was measured by bioassay method using L929 cells (from Dainippon Sumitomo Pharma) (David H., et al., J. Allergy Clin. Immunol. 89, 958-967 (1992)). Using recombinant human TNF-α (by PeproTech) as a standard, the result was shown by potency of human TNF-α cytotoxicity.

[8] = once a day for 15 days, OVA nasal challenge

Structure (SMILES)	ED50 [1]	release of histamine from mast cells [2]	release of Cys-LT from mast cells [3]	release of IL-13 from mast cells [4]	release of TNF-α from mast cells [4]	release of prostaglandin D2 from eosinophiles [5]	release of thromboxane B2 from eosinophiles [5]	efficacy on immediate and delayed nasal congestion reaction compared with dexamethasone ([6]; 30 mg/kg)	delayed nasal congestion reaction (LAR, AUC3-7hr of sRaw increased rate) [6, 8]	immediate nasal congestion reaction (IAR, sRaw increased rate 10 minutes after challenge) [6, 8]	production of LTE4 in nasal cavity (NCLF) ([7]; EIA)	production of TNF in nasal cavity (NCLF) ([7]; L929 bioassay)
CNC(=O)NCCn1c(-c2ccc(N3CCOCC3)cc2)csc1=Nc1ccc(F)cc1 [Compound 2, reference compound]	0.69 mg/kg											
CNC(=O)NCCn1c(-c2ccc(N3CCOCC3)cc2)csc1=Nc1cccc(F)c1 [SMP-028, N-{2-[2-[(3-Fluorophenyl)imino]-4-(4-morpholin-4-ylphenyl)-1,3-thiazol-3(2H)-yl]ethyl}-N′-methylurea]	0.44 mg/kg	inhibited	inhibited	inhibited	inhibited	concentration-dependently inhibited	concentration-dependently inhibited	efficacy comparative to dexamethasone	dose-dependently inhibited	dose-dependently inhibited	showed a tendency and activity of inhibition	showed a tendency and activity of inhibition
